US8557859B2, “Immunomodulatory compositions” (Summit (Wales) Limited, priority 2003, dated 2013)

Legend:
Dendritic cells = assay: Induction of IL-12 secretion in dendritic cells (ELISA); format: cell-based, BALB/c mice; details: dendritic cells; compounds 50 μg/ml and 20 μg/ml, 24 hrs (or 48 hrs)
Procedure: BALB/c male and female mice bred and maintained at the University of Strathclyde under conventional conditions were used at 8 weeks old.
Bone marrow was obtained from the femurs of mice. The femurs were washed in 70% ethanol and placed in a clean petri dish. Dendritic cell (DC) medium (2.5% granulocyte-macrophage colony-stimulating factor (GM-CSF), 10% […] foetal calf serum, 1% L-glutamine, 1% Penicillin/Streptomycin in RPMI-1640 medium) was injected into the bone marrow of the femur by a pumping action and the cells and medium were collected. 1 ml of the cells in medium was added to a 75 cm^2 flask with 15 mls of DC medium. The flasks were then incubated at 37° C., 5% CO2 to allow DC growth and development. After 5 days an additional 10 mls of DC medium was added.
After 10 days of incubation of bone marrow with GM-CSF, the dendritic cells were harvested. This process was carried out in a tissue culture hood. The contents of the flasks were poured into centrifuge tubes to ensure collection of floating DCs. Approximately 10 mls of cooled phosphate buffered saline (PBS) was added to each empty flask, the flasks gently agitated and the contents collected. […] The collected contents of the flasks were centrifuged for 5 minutes at 200 g and the pellet resuspended in 2 mls of DC medium without GM-CSF. A cell count was then carried out.
Cells were counted using a haemocytometer. Approximately 20 μl of the resuspended cells was pipetted into the chamber of the haemocytometer, the cells were adjusted to the correct cell concentration (approx. 5×10^4, and not less than 1×10^4, per well) and then plated out for assay.
The plates were incubated overnight at 37° C. with 5% CO2 and allowed to settle (harvesting stimulates them). The next day the compounds (50 μg/ml and 20 μg/ml) and controls were added then again incubated at 37° C. with 5% CO2 for 24 hrs (or 48 hrs). Harvesting and addition of the compounds was all done in a hood. The plates were then frozen to kill the cells and once defrosted the supernatant analysed as described below.
Using an enzyme linked immunosorbent assay (ELISA) IL-12 concentration in the supernatants was measured. All reagents used in this assay were from PharMingen. A 96-well flat-bottomed ELISA plate was coated with purified rat anti-mouse IL-12 (p40/p70) MAb (Cat no. 554478) at 2 μg/ml diluted in PBS pH 9.0 at 50 μl/well. The plate was then covered in cling film and incubated at 4° C. Following incubation the plate was washed 3 times in washing buffer and dried. 200 μl of blocking buffer (10% foetal calf serum in PBS pH 7.0) was added to each well then covered in cling film and incubated at 37° C. for 45 minutes. The plate was washed 3 times and dried. Recombinant mouse Il-12 standard was added at 30 μl in duplicate wells, starting at 10 ng/ml then 5, 2.5, 1.25, 0.625, 0.31, 0.156, 0.078, 0.039, 0.020, 0.010, 0.005 ng/ml. Standards were diluted in blocking buffer. The supernatant samples were added in at 50 μl/well. The plate was then covered in cling film and incubated for 2 hours at 37° C. The plate was then washed 4 times, dried and the secondary antibody added.
Biotin labelled anti-mouse IL-12 (p40/p70) MAb (Cat no. 18482D) at 1 μg/ml (diluted in blocking buffer) was added to each well at a volume of 100 μl/well. The plate was covered in cling film and incubated at 37° C. for 1 hour. The plate was then washed 5 times, dried and the conjugate added. Streptavidin-AKP (Cat no. 13043E) at 100 μl/well was added at a dilution of 1/2000 in blocking buffer followed by incubation under cling film at 37° C. for 45 minutes.
The plate was finally washed 6 times, dried and the substrate added. pNPP (Sigma) in glycine buffer at 1 mg/ml was added at 100 μl/well. The plate was then covered in tinfoil, incubated at 37° C. and checked every 30 minutes for a colour change.
The plate was then read at 405 nm using a SPECTRAmax 190 spectrometer.

Spleen cells = assay: Cytokine modulation in spleen cells: splenocyte IFN-γ production; format: cell-based, BALB/c mice; details: result in words
Procedure: BALB/c male and female mice bred and maintained at the University of Strathclyde under conventional conditions were used at varying age.
The mouse spleen was removed aseptically and placed in a sterile petri dish containing 5 mls of complete medium (RPMI, 1% L-Glutamine, 1% Penicillin/Streptomycin and 10% foetal calf serum). Cells suspensions were prepared by using the end of a syringe and grinding the spleen through a wire mesh. The cell suspension was then centrifuged at 1000 rpm for 5 minutes. To remove the erythrocytes, the cell pellet was resuspended in Boyle's solution (Tris 0.17M & Ammonium Chloride 0.16M) and centrifuged again for 5 minutes. The pellet was then washed in medium a further two times, then resuspended in 3 mls medium. A cell count was then carried out.
All spleen cell experiments were carried out in 96-well tissue culture plates. […] Unstimulated wells contained 100 μl of cells and 100 μl of medium. The stimulated wells contained 100 μl of cells plus 50 μl of LPS at 1 μg/ml or 50 μl anti-CD3 at 0.5 μg/ml and 50 μl of medium. The remaining wells contained 100 μl cells, 50 μl of MNLP compound and either 50 μl of anti-CD3 or medium alone.
The appropriate Mabs and standards were used according to the protocol described for IL-12 (described in Example 1, above).

α-D-glucosidase = assay: Glycosidase inhibition, α-D-glucosidase (Bacillus); format: biochemical, Bacillus stearothermophilus; details: 1 mg/ml
Procedure: (§1) All enzymes were purchased from Sigma, as were the appropriate p-nitrophenyl substrates. Assays were carried out in microtitre plates. Enzymes were assayed in 0.1 M citric acid/0.2M di-sodium hydrogen phosphate (McIlvaine) buffers at the optimum pH for the enzyme. All assays were carried out at 20° C. For screening assays the incubation assay consisted of 10 μl of enzyme solution, 10 μl of inhibitor solution (made up in water) and 50 μl of the appropriate 5 mM p-nitrophenyl substrate (3.57 mM final conc.) made up in McIlvaine buffer at the optimum pH for the enzyme.
(§2) The reactions were stopped with 0.4M glycine (pH 10.4) during the exponential phase of the reaction, which was determined at the beginning of the assay using blanks with water, which were incubated for a range of time periods to measure the reaction rate using 5 mM substrate solution. Endpoint absorbances were read at 405 nm with a Biorad microtitre plate reader (Benchmark). Water was substituted for the inhibitors in the blanks.

β-D-glucosidase = assay: Glycosidase inhibition, β-D-glucosidase; format: biochemical, Almonds (Prunus sp.); details: 1 mg/ml
Procedure: as §1, §2

β-D-galactosidase = assay: Glycosidase inhibition, β-D-galactosidase; format: biochemical, Bovine liver; details: 1 mg/ml; second galactosidase line
Procedure: as §1, §2

Naringinase = assay: Glycosidase inhibition, Naringinase; format: biochemical, Penecillium decumbens; details: 1 mg/ml
Procedure: as §1, §2

[1] = system: N-acetyl-β-D-glucosaminidase; assay: Glycosidase inhibition, N-acetyl-β-D-glucosaminidase; format: biochemical, Bovine kidney; details: 1 mg/ml
Procedure: as §1, §2

B16-F10 tumour cells = assay: Control of lung metastasis in mice; format: in vivo, Mice (C57/bl6); details: 50 mg/kg s/c on days 2 and 4; lungs on day 14
Procedure: Mice (C57/bl6 under i/p ketamine anaesthesia) were challenged i/v (tail vein) with 5×10^4 B16-F10 tumour cells in a final volume of 100 μl per mouse on day 0. Test compounds (50 mg/kg in 200 μl sterile non-pyrogenic saline) were administered s/c (right flank) on days 2 and 4. On day 14 the mice were sacrifices and the lungs dissected and stained in Indian ink solution (150 ml bidistilled water, 30 ml India Ink, 4 drops NH4OH) for 10 minutes then fixed for at least 24 hr in Fakete's solution (90 ml 37% formaldehyde, 900 ml 70% EtOH and 45 ml glacial acetic acid). The metastases in the stained and fixed lungs could then be visualized, counted and photographed.

glycosidase = details: see U.S. Pat. No. 5,075,457; cited from earlier work
HSV-1 (SC16) = assay: Treatment of murine HSV-1 infection: ear pinna thickness; format: in vivo, BALB/c mice; details: for Ear pinna thickness (mm^−2): Group 4: via drinking water 1 mg/ml
[2] = Treatment of murine HSV-1 infection: body weight; format: in vivo, BALB/c mice; details: Group 4: via drinking water 1 mg/ml

OC[C@H]1NC[C@H](O)[C@@H](O)[C@@H]1O [1-Deoxynojirimycin (DNJ) (21), 1-Deoxynojirimycin]
IL-12 RELEASE (Dendritic cells): No | IFN-γ secretion/production in splenocytes (Spleen cells): inhibited IFN-γ secretion/production in splenocytes

OC[C@H]1[C@@H](O)[C@H](O)[C@H]2[C@@H](O)CCN21 [3,7a-diepialexine (23), 3,7a-diepialexine]
IL-12 RELEASE (Dendritic cells): No

OC[C@H]1[C@@H](O)[C@H](O)[C@H]2[C@H](O)[C@@H](O)CN21 [3-epi-casuarine (14), 3-epi-casuarine]
IL-12 RELEASE (Dendritic cells): Yes | % inhibition gluc (Bacillus) (α-D-glucosidase): 12% | % inhibition glucosidase (β-D-glucosidase): 56% | % inhibition galactosidase (β-D-galactosidase): 6% | % inhibition Naringinase (Naringinase): 21% | % inhibition N-acetyl-β-gluc [1]: −1% | Metastatic morphology (B16-F10 tumour cells): Metastasis restricted to apical tip of lung

OC[C@@H]1[C@@H](O)[C@H](O)[C@H]2[C@@H](O)[C@@H](O)CN21 [7-epi-casuarine (11), 7-epi-casuarine]
IL-12 RELEASE (Dendritic cells): Yes | % inhibition gluc (Bacillus) (α-D-glucosidase): 5% | % inhibition glucosidase (β-D-glucosidase): 30% | % inhibition Naringinase (Naringinase): −4%

OC[C@@H]1[C@@H](O)[C@H](O)[C@H]2[C@@H](O)CCN21 [7-epialexine (22), 7-epialexine]
IL-12 RELEASE (Dendritic cells): No

O[C@H]1[C@H]2[C@@H](O)CCN2C[C@H]1O [7S-epimer (6)]
glycosidase inhibitory activity relative to swainsonine (glycosidase): much weaker inhibitory activity relative to swainsonine itself

O[C@H]1[C@H]2[C@H](O)CCN2C[C@H]1O [(1S,2R,7R,7aR)-1,2,7-trihydroxypyrrolizidine]
glycosidase inhibitory activity relative to swainsonine (glycosidase): much weaker inhibitory activity relative to swainsonine itself

OC[C@@H]1[C@@H](O)[C@H](O)[C@@H]2[C@@H](O)CCN21 [Alexine (1), Alexine]
IL-12 RELEASE (Dendritic cells): No

OC[C@H]1[C@@H](O)[C@H](O)[C@H]2[C@@H](O)[C@H](O)CN21 [Compound 12, 3,6,7-triepi-casuarine]
% inhibition gluc (Bacillus) (α-D-glucosidase): 9% | % inhibition glucosidase (β-D-glucosidase): 6% | % inhibition galactosidase (β-D-galactosidase): 6% | % inhibition Naringinase (Naringinase): 0% | % inhibition N-acetyl-β-gluc [1]: 19%

OC[C@H]1[C@@H](O)[C@H](O)[C@@H]2[C@@H](O)[C@H](O)CN21 [Compound 21, 3,6,7,7a-tetraepi-casuarine]
% inhibition gluc (Bacillus) (α-D-glucosidase): −2% | % inhibition glucosidase (β-D-glucosidase): 44% | % inhibition galactosidase (β-D-galactosidase): 3% | % inhibition Naringinase (Naringinase): 5% | % inhibition N-acetyl-β-gluc [1]: 27%

OC[C@H]1[C@@H](O)[C@H](O)[C@@H]2[C@@H](O)[C@@H](O)CN21 [Compound 22, 3,7,7a-triepi-casuarine]
% inhibition gluc (Bacillus) (α-D-glucosidase): 87% | % inhibition Naringinase (Naringinase): 10%

OCC1O[C@H](O[C@H]2CN3[C@@H]([C@@H](O)[C@H](O)[C@H]3CO)[C@@H]2O)C(O)[C@@H](O)[C@@H]1O (stereo partly drawn) [casuarine-6-α-D-glucopyranose (9), casuarine-6-α-D-glucopyranose]
IL-12 RELEASE (Dendritic cells): Yes

CC(=O)OCC(CCn1cnc2cnc(N)nc21)COC(C)=O [famciclovir, reference compound]
Ear pinna thickness (mm^−2) (HSV-1 (SC16); day 0): 0 mm^−2 | Ear pinna thickness (mm^−2) (HSV-1 (SC16); day 1): 0 mm^−2 | Ear pinna thickness (mm^−2) (HSV-1 (SC16); day 2): 0 mm^−2 | Ear pinna thickness (mm^−2) (HSV-1 (SC16); day 3): 7 mm^−2 | Ear pinna thickness (mm^−2) (HSV-1 (SC16); day 4): 7 mm^−2 | Ear pinna thickness (mm^−2) (HSV-1 (SC16); day 5): 0 mm^−2 | Ear pinna thickness (mm^−2) (HSV-1 (SC16); day 6): 4 mm^−2 | Ear pinna thickness (mm^−2) (HSV-1 (SC16); day 7): 0 mm^−2 | Ear pinna thickness (mm^−2) (HSV-1 (SC16); day 8): 2.9 mm^−2 | Ear pinna thickness (mm^−2) (HSV-1 (SC16); day 9): 2.9 mm^−2 | Ear pinna thickness (mm^−2) (HSV-1 (SC16); day 11): 2.9 mm^−2 | Ear pinna thickness (mm^−2) (HSV-1 (SC16); day −2): 0 mm^−2 | ear thickness response (HSV-1 (SC16); result in words, casuarine at both doses (15 and 150 mg/kg i.p.), famciclovir via drinking water 1 mg/ml): almost completely negated the ear thickness response | Group mean weight ([2]; day 0): 15.1 g | Weight (% change) ([2]; day 0): 9% | Group mean weight ([2]; day 1): 15.6 g | Weight (% change) ([2]; day 1): 13% | Group mean weight ([2]; day 2): 15.8 g | Weight (% change) ([2]; day 2): 14.5% | Group mean weight ([2]; day 3): 16.4 g | Weight (% change) ([2]; day 3): 18.8% | Group mean weight ([2]; day 4): 16.3 g | Weight (% change) ([2]; day 4): 18.1% | Group mean weight ([2]; day 5): 16.7 g | Weight (% change) ([2]; day 5): 21% | Group mean weight ([2]; day 6): 17.1 g | Weight (% change) ([2]; day 6): 23.9% | Group mean weight ([2]; day 7): 16.7 g | Weight (% change) ([2]; day 7): 21% | Group mean weight ([2]; day 8): 17.1 g | Weight (% change) ([2]; day 8): 23.9% | Group mean weight ([2]; day 9): 17.1 g | Group mean weight ([2]; day 10): 17.2 g | Group mean weight ([2]; day 11): 17.1 g | Group mean weight ([2]; day 12): 17.2 g | Group mean weight ([2]; day −2): 13.8 g | Weight (% change) ([2]; day −2): 0%
